Among the data in the Kinase Knowledgebase extract (Sharma et al. 2016) are IC50 and inhibition values, retold here.

The target of assay [1] is MAPK14 (human) (UniProt Q16539). Nature of the assay: Inhibition of MAPK14 Kinase Activity.
The target in assay [2] is PIK3CA (human) (UniProt P42336). In words: Inhibition of Substrate Phosphorylation by PIK3CA. The following applies: hct 116,bxpc-3 pancreatic,mda-mb-468, concentration not given here.
The target is the same in assay [3]. In words: Inhibition of PIK3CA Kinase Activity.

Sequence of MAPK14 (human) (Q16539 whole entry, looked up): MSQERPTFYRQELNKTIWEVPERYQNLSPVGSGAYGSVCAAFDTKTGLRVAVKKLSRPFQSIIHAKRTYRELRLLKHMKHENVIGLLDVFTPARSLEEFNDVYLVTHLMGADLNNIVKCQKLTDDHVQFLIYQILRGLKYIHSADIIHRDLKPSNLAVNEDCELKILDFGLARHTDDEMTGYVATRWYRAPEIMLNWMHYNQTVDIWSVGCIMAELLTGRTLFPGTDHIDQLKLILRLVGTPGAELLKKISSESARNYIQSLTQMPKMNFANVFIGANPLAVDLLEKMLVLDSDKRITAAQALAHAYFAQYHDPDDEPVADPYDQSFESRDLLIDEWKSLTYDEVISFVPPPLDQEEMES
Sequence of PIK3CA (human) (P42336 whole entry, looked up): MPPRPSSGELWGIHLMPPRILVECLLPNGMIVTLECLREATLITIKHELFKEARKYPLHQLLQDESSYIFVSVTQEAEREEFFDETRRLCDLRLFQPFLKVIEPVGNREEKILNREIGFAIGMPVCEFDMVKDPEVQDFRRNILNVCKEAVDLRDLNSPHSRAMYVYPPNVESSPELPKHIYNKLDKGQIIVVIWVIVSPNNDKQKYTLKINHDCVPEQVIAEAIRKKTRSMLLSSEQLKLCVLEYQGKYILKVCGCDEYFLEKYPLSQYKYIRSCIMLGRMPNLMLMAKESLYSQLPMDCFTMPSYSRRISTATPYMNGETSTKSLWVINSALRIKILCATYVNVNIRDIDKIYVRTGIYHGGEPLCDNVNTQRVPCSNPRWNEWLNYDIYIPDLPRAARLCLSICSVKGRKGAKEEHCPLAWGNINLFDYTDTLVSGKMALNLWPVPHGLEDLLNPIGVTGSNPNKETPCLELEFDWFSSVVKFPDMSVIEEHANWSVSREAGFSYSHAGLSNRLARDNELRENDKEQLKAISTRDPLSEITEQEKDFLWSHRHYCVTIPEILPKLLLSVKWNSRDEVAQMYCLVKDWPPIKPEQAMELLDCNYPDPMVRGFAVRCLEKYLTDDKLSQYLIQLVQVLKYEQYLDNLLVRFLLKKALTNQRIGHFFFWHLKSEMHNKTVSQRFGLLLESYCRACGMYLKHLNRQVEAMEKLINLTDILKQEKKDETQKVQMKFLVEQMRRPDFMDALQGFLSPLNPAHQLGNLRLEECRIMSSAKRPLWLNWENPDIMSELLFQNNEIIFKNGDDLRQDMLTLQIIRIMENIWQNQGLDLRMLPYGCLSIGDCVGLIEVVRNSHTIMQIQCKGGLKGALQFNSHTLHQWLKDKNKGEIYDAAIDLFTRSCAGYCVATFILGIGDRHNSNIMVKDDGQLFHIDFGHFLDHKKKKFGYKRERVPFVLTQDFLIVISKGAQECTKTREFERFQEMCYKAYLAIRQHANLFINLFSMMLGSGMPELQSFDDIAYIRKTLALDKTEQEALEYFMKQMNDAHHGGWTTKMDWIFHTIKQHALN

Usually IC50 stands for the point on the concentration scale where inhibition reaches its midpoint. A high value points to weaker potency. `CCNC(=O)Nc1ccc2ncc(-c3ccc(NC(=O)OCCOC)cc3)nc2n1` yielded an IC50 in assay [1] above 100 µM.

In assay [1], `CCOP(=O)(CCCCNC(=O)Nc1ccc2ncc(-c3ccc(O)c(OC)c3)nc2n1)OCC` showed an IC50 above 100 µM.

`COc1cc(-c2cnc3ccc(NC(=O)NCCCCP(=O)(O)O)nc3n2)ccc1O` showed an IC50 in assay [1] above 100 µM.

A word on the inhibition: it is the percentage by which the read-out fell short of the control. Low readings indicate little suppression, high ones strong suppression. Regarding `CCNC(=O)Nc1ccc2ncc(-c3ccc(OC(=O)OC)cc3)nc2n1`, in assay [1], the IC50 was above 100 µM. In assay [2], this molecule registered an inhibition of 50%.

On to `CCNC(=O)Nc1ccc2ncc(Nc3ccc(NC(C)=O)cc3)nc2n1`, for which the IC50 in assay [1] is above 100 µM.

For the molecule `CCNC(=O)Nc1ccc2ncc(Nc3ccc(C)c(NS(C)(=O)=O)c3)nc2n1`, the inhibition in assay [2] was found to be 90%.

The molecule `CCNC(=O)Nc1ccc2ncc(-c3ccc(OC(=O)Oc4ccccc4)cc3)nc2n1` displayed an IC50 in assay [1] above 100 µM.

The molecule `CCNC(=O)Nc1ccc2ncc(-c3ccc(OC(=O)OCCOC)cc3)nc2n1` came in with an IC50 in assay [1] above 100 µM. Also, the inhibition in assay [2] is 100%.

`CCNC(=O)Nc1ccc2ncc(-c3ccc(NC(=O)COCCOC)cc3)nc2n1` showed an IC50 in assay [1] above 100 µM.

As for `CCNC(=O)Nc1ccc2ncc(-c3ccc(OC(=O)N(C)C)cc3)nc2n1`, the IC50 in assay [1] is above 100 µM.

On to `CCNC(=O)Nc1ccc(-c2cnc3ccc(NC(=O)NCC)nc3n2)cn1`, for which the IC50 in assay [1] was above 100 µM.

On to `CCNC(=O)Nc1ccc2ncc(-c3cccc(OC(=O)OCCOC)c3)nc2n1`, for which the IC50 in assay [1] is above 100 µM.

Turning to `CCNC(=O)Nc1ccc(-c2cnc3ccc(NC(=O)NCC)nc3n2)cc1`, the IC50 in assay [1] is above 100 µM. This molecule also had an inhibition in assay [2] of 70%.

On to `CCNC(=O)Nc1ccc2ncc(-c3ccc(OC(=O)OCC(C)C)cc3)nc2n1`, for which the IC50 in assay [1] was above 100 µM.

For `COCCOC(=O)Oc1ccc(-c2cnc3ccc(NC(=O)NCCCCO)nc3n2)cc1`, in assay [1], the IC50 is above 31.6 µM.

In the case of `CCNC(=O)Nc1ccc2ncc(-c3ccc(OC(=O)/C=C/c4ccccc4)cc3)nc2n1`, the IC50 in assay [3] was above 31.6 µM; in assay [1], above 100 µM.

`CCNC(=O)Nc1ccc2ncc(-c3ccc(NC(=O)OC(C)(C)C)cc3)nc2n1` registered an IC50 in assay [1] above 100 µM.

The molecule `CCNC(=O)Nc1ccc2ncc(-c3ccc(OC(=O)OCCOC)c(OC)c3)nc2n1` gave an IC50 in assay [1] above 100 µM. In addition, the inhibition in assay [2] came out at 90%.
